One assay relates to HCT116. Put plainly: MTT assay, antiproliferative effect on HCT116. In kind it is cell-based. The note with it: Homo sapiens. As for the experimental part: (§1) Human CRC (HCT116 and HT-29) and PCa (DU145 and PC3) cell lines were purchased from the American Type Culture Collection (ATCC—LGC Standards, Molsheim, France). All cells were grown in RPMI 1640 medium supplemented with 10% FBS, 1% L-glutamine, 100 U/mL penicillin, and 100 μg/mL streptomycin. Cultures were maintained in a humidified atmosphere containing 5% CO2 at 37 °C. Cells were seeded in 75 cm^2 culture flasks at 1.2 × 10^4 cells/cm^2 for HCT116, DU145, and PC3 cells, and 2.0 × 10^4 for HT-29 cells. Cells were grown for 24 h in culture medium prior to exposure or not to obtain the synthesized compounds. Stock solutions (10^−2 M in DMSO) of each compound were diluted in culture medium to obtain appropriate final concentrations.
(§2) • (a) MTT assay: The antiproliferative effect of all compounds was determined using MTT assay (a metabolic activity test). Briefly, cells were seeded in 96-well culture plates at 4 × 10^3 cells/well for HCT116, PC3, and DU145 cells and 6 × 10^3 cells/well for HT-29 cells (100 µL/well), and grown for 24 h in culture medium prior to exposure or not to obtain compounds 1–15 with concentrations ranging from 5 nM to 50 μM. After 24 and 48 h of treatment, MTT (5 mg/mL in PBS) was added and incubated for another 3 h. MTT was then removed from the wells before adding 100 μL/well of DMSO. The optical density was detected with a microplate reader (Multiskan FC, Thermoscientific, Bordeaux, France) at 550 nm and cell viability was expressed as a percentage of each treatment condition compared to control cells. IC50 values were calculated for all compounds from the dose–response curve. Data are expressed as the arithmetic means ± standard error of the mean (SEM) of separate experiments. All experiments were performed at least in triplicate. • (b) Trypan blue dye exclusion method: Cells were grown for 24 h then treated with compounds 10 and 13 at indicated concentrations. After 48 h of treatment, cells were trypsinized and resuspended in complete medium. Each sample was mixed with Trypan blue solution (0.14% in HBSS, Invitrogen-GIBCO, ThermoFisher, Illkirch, France). Colored (non-viable) and dye-excluding (viable) cells were counted with the LUNA-II automated cell Counter (Logos Biosystems; MC2, Aubière, France). The control was normalized to 100% including viable and dead cells. The results indicated on the histograms were expressed as the percentage of cells compared to the control. IC50 values were determined from the percentages of viable cells compared to the control.
For orientation: Tetrazolium assays rely on reduction of a dye to a coloured formazan, in cell work by metabolically active cells.

The next assay relates to HT-29. Put plainly: MTT assay, antiproliferative effect on HT-29. In kind it is cell-based, human. As for the experimental part: as §1, §2
In a further assay the test system is DU145. Put plainly: MTT assay, antiproliferative effect on DU145. In kind it is cell-based. The note with it: Homo sapiens. As for the experimental part:
as §1, §2

Another assay concerns PC3. Put plainly: MTT assay, antiproliferative effect on PC3. In kind it is cell-based. The note with it: Homo sapiens. As for the experimental part:
as §1, §2

Assay [1] concerns cellular microtubules in HeLa cells. The assay can be described thus: Quantitative assay of the cellular microtubule content (immunoluminescence). In kind it is cell-based. The note with it: Homo sapiens, 0.5 h, 30 min incubation. As for the experimental part:
The assay was realized as described by Laisne et al.. Briefly, 7500 HeLa cells were seeded in 96-well microplates (#655086, Greiner bioOne, Courtaboeuf, France) in 100 µL of complete medium per well and then incubated at 37 °C in 5% CO2 for 24 h. Cells were then treated for 30 min at 37 °C with the compounds at concentrations ranging from 0.1 to 1000 µM (1 microplate per molecule, 1 concentration per column), with 0.1% DMSO used as […] (6 wells per microplate). After medium aspiration, treated cells were permeabilized for 10 min using 100 µL per well of warmed (37 °C) OPT buffer (80 mM Pipes, 1 mM EGTA, 1 mM MgCl2, 0.5% Triton X-100, and 10% glycerol, pH 6.8). Cells were fixed overnight at room temperature using 100 µL per well of 4% formaldehyde (Sigma Aldrich, #252549, Saint-Quentin-Fallavier, France) in PBS. Cells were washed 3 times in PBS, 0.1% Tween-20 (100 µL per well), then primary anti-alpha-tubulin antibody (clone α3A1), 1:5000 in PBS 2% Bovine Serum Albumin (BSA), was added for 45 min. Cells were washed twice again and secondary anti-mouse antibody coupled to HRP (1:2000 in PBS 2% BSA, #715-035-150, Jackson Immuno-Research Laboratories, Cambridgeshire, UK) was added for 45 min. Then, cells were washed again with PBS and 100 µL of ECL substrate (#170-5061, Bio-Rad Laboratories Inc., Hercules, CA, USA) was injected in each well using the FLUOstar OPTIMA Microplate Reader (BMG Lab technology, Champagny-sur-Marne, France). The luminescent signal was read immediately after ECL injection. IC50 values were calculated using GraphPad Prism software (10.3.1 version) and are presented in the text as means ± SEM of three independent experiments.

A further assay has as its system HeLa cells microtubules. The assay can be described thus: Tubulin immunofluorescence. The note with it: 30 min, chalcone 8 at 1 µM or chalcone 2 at 200 µM. In kind it is cell-based. The protocol:
Cells at a density of 20,000 cells per well were grown for 48 h on glass coverslips placed in a 24-well microplate. When cells reached 70% confluence, the medium was replaced with a fresh one supplemented with DMSO (0.005% or 0.01%) or the test compound at 1 or 200 µM. After 30 min of incubation, cells were permeabilized in warm OPT buffer (80 mmol/L Pipes, […], 0.5% Triton X-100 and 10% Glycerol, pH 6.8) and fixed for 6 min in −20 °C methanol (Carlo ERBA SAS, #414855, Val-de-Reuil, France). After washing and saturation with a specific blocking buffer (3% BSA), 10% Goat serum (Gibco Invitrogen, #16210064, Carlsbad, CA, USA) in PBS, cells were incubated for 45 min at room temperature (RT) with anti-alpha-tubulin antibody (clone α3A1 in blocking buffer). Cells were washed twice again and subsequently incubated with Alexa 488 conjugated anti-mouse antibody (1:500 in blocking buffer, #115-545-166, Jackson immune-research laboratory, Cambridgeshire, UK) and DNA was stained with Dapi which was included in mounting media (Dapi fluoromount, #0100-20, Clinisciences, France). Images were captured with a Zeiss AxioimagerM2 microscope (Zeiss microscopy, Rueil Malmaison, France) equipped with the acquisition software AxioVision (4.8 version, Marly-le-Roi, France).

The test system of assay [2] is human PCa (DU145 and PC3) cell lines. The assay can be described thus: MTT assay, summary statements for PCa cells. In kind it is cell-based. The protocol:
as §1, §2

Setting [3] is: HCT-116, 24 h, read-out: IC50 HCT116 24 h.
[4] abbreviates: HCT-116, 48 h, read-out: IC50 HCT116 48 h.
[5] abbreviates: 48 h, read-out: IC50 HT-29 48 h.
[6] abbreviates: Homo sapiens, HT-29, 24 h, 24 h, read-out: IC50 HT-29 24 h.
The mark [7] stands for this setting: Homo sapiens, HT-29, 48 h, 48 h, read-out: IC50 HT-29 48 h.
Where [8] appears, read: DU-145, 24 h, read-out: IC50 DU145 24 h.
The mark [9] stands for this setting: DU-145, 48 h, read-out: IC50 DU145 48 h.
Where [10] appears, read: PC-3, 24 h, read-out: IC50 PC3 24 h.
[11] abbreviates: PC-3, 48 h, read-out: IC50 PC3 48 h.
[12] abbreviates: read-out: IC50 depolymerization of cellular microtubules.

The term IC50 denotes the midpoint of a concentration-inhibition curve.

Read-outs that look alike come from different tables or passages of the source.

On to `COc1cc(C(=O)/C=C/c2cccc(O)c2)cc(OC)c1OC` [chalcone 2, (E)-3-(3-hydroxyphenyl)-1-(3,4,5-trimethoxyphenyl)prop-2-en-1-one], for which the IC50 in the assay on HCT116 (setting [3]) worked out at 4.23 ± 0.11 µM; with HCT116 (setting [4]), 2.66 ± 0.1 µM; with HT-29 (setting [5]) it was 7.34 ± 0.22 µM; with HT-29 (setting [6]) it was 9.87 ± 0.44 µM; in the assay on HT-29 (setting [7]), 7.3 µM; in the assay on DU145 (setting [8]), 3.47 ± 0.24 µM. Also, the IC50 in the assay on DU145 (setting [9]) was 2.97 ± 0.15 µM; with PC3 (setting [10]), 3.76 ± 0.28 µM; with PC3 (setting [11]), 3.44 ± 0.11 µM; in assay [1] (no unit in the picture, read-out: IC50 microtubule contents (printed in Figure 8)), 106 ± 4.69 µM; in assay [1] (setting [12]), 106 ± 4.7 µM; in assay [2] (Homo sapiens, DU-145, DU145 and PC3, text summary, read-out: IC50 against PCa cells) it was around 3 µM. Moreover, the “state of tubulin / microtubules by immunofluorescence” value in the assay with HeLa cells microtubules is “tubulin is mainly in its depolymerized form”.

Turning to `COc1ccc(/C=C/C(=O)c2cc(OC)c(OC)c(OC)c2)cc1O` [chalcone 8, (E)-3-(3-hydroxy-4-methoxyphenyl)-1-(3,4,5-trimethoxyphenyl)prop-2-en-1-one], the IC50 in the assay on HCT116 (setting [3]) is 0.22 ± 0.01 µM; in the assay with HCT116 (setting [4]), 0.11 ± 0.02 µM; with HT-29 (setting [5]) it was 8.11 ± 0.5 µM; in the assay on HT-29 (setting [6]) it was 8.03 ± 0.18 µM; in the assay on HT-29 (setting [7]), 8.1 µM; in the assay on DU145 (setting [8]) it was 0.036 ± 0.002 µM. The IC50 in the assay on DU145 (setting [9]) is 0.031 ± 0.001 µM; in the assay on PC3 (setting [10]) it was 0.021 ± 0.001 µM; with PC3 (setting [11]) it was 0.02 ± 0.001 µM; in assay [1] (setting [12]), 0.289 ± 0.045 µM; in assay [2] (DU145 and PC3, read-out: IC50 towards PCa cells) it was around 0.02 µM; in assay [2] (Homo sapiens, DU-145, DU145 and PC3, text summary, read-out: IC50 towards PCa cells) it was 0.017 to 0.031 µM. Besides, the “state of tubulin / microtubules by immunofluorescence” value in the assay on HeLa cells microtubules is given as “tubulin is mainly in its depolymerized form”.

These data come from PMC11434868, “Synthesis and Antiproliferative Effect of 3,4,5-Trimethoxylated Chalcones on Colorectal and Prostatic Cancer Cells” (Pharmaceuticals, 2024).
